Reference: patent US7851474B2, “Dipiperazinyl ketones and related analogues” (Neurogen Corporation, priority 2005, dated 2010)

These compounds were tested against T1, chimeric human H3 receptor (Homo sapiens, UniProt Q9Y5N1, E19D) (assay: Chimeric human H3 receptor screening GTP binding assay (inhibition of histamine-stimulated GTP-gamma35S binding, Example 8)). Conditions: 1 h; "+" in Ki of Table II; assay of Example 8; read-out: percent inhibition of agonist-induced GTP-gammaS binding to H3.
T1 construct: made in house; host or cells: Sf9 insect cells (baculovirus infection); P2 membrane preparation
T1 sequence (Q9Y5N1 with tags, fused parts or gaps E19D): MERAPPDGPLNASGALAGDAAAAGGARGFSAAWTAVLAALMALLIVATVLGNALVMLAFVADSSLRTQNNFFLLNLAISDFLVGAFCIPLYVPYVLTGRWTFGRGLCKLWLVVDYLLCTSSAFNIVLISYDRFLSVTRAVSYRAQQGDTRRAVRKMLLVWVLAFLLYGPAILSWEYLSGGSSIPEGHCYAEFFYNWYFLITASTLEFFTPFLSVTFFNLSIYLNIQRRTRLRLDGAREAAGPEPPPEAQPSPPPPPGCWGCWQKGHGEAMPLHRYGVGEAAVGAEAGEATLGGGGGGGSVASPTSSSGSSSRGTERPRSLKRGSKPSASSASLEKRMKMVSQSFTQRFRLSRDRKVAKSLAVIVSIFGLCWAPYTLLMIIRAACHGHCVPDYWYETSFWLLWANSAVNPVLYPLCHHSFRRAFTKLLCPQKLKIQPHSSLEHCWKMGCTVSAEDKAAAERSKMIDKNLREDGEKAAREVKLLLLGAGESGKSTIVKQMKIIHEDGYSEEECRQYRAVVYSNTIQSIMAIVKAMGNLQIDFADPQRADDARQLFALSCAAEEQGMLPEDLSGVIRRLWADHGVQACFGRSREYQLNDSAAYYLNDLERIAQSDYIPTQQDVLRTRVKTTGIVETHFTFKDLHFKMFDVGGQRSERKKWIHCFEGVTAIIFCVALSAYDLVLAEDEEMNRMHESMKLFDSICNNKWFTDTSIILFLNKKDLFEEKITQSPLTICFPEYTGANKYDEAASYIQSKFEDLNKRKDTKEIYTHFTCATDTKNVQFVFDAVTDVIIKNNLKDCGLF
Type: biochemical
Method in brief: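 Data are percent inhibition of the 1 μM histamine-stimulated GTP-gamma35S (125 pM) binding, after non-specific binding (10 uM GTP-gammaS) is subtracted. Test compound at 4 μM. Incubation was 60 min at room temperature with Sf9 membranes bearing receptor plus G-protein subunits, buffer pH 7.4 with 10 μM GDP, and filtration read-out.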
Work on `O=C(CN1CCN(C(=O)c2cc(C(F)(F)F)ccc2Cl)CC1)N1CCN(C2CCC2)CC1` [Compound 452, 1-[2-chloro-5-(trifluoromethyl)benzoyl]-4-[2-(4-cyclobutylpiperazin-1-yl)-2-oxoethyl]piperazine] yielded an inhibition at 4 µM of over 90%.
For `O=C(CN1CCN(C(=O)c2cc(C(F)(F)F)cc(C(F)(F)F)c2)CC1)N1CCN(C2CCC2)CC1` [Compound 456, 1-[3,5-bis(trifluoromethyl)benzoyl]-4-[2-(4-cyclobutylpiperazin-1-yl)-2-oxoethyl]piperazine], the inhibition at 4 µM was over 90%.
Compound `O=C(CN1CCN(C(=O)c2cc(-c3ccc(Cl)cc3)oc2C(F)(F)F)CC1)N1CCN(C2CCC2)CC1` [Compound 469, 1-[5-(4-chlorophenyl)-2-(trifluoromethyl)-3-furoyl]-4-[2-(4-cyclobutylpiperazin-1-yl)-2-oxoethyl]piperazine] has an inhibition at 4 µM of over 90%.
`Cc1oc(-c2ccc(Cl)cc2)cc1C(=O)N1CCN(CC(=O)N2CCN(C3CCC3)CC2)CC1` [Compound 470, 1-[5-(4-chlorophenyl)-2-methyl-3-furoyl]-4-[2-(4-cyclobutylpiperazin-1-yl)-2-oxoethyl]piperazine] gave an inhibition at 4 µM of over 90%.
With `COc1cc(/C=C/C(=O)N2CCN(CC(=O)N3CCN(C4CCC4)CC3)CC2)ccc1OCc1ccccc1` [Compound 471, 1-{(2E)-3-[4-(benzyloxy)-3-methoxyphenyl]prop-2-enoyl}-4-[2-(4-cyclobutylpiperazin-1-yl)-2-oxoethyl]piperazine] the inhibition at 4 µM was over 90%.
With `CCCc1c(C(=O)N2CCN(CC(=O)N3CCN(C4CCC4)CC3)CC2)cnn1-c1ccc(Cl)cc1` [Compound 472, 1-{[1-(4-chlorophenyl)-5-propyl-1H-pyrazol-4-yl]carbonyl}-4-[2-(4-cyclobutylpiperazin-1-yl)-2-oxoethyl]piperazine] the inhibition at 4 µM was over 90%.
`O=C(CN1CCN(C(=O)c2cccnc2Oc2ccc(Cl)cc2)CC1)N1CCN(C2CCC2)CC1` [Compound 473, 1-{[2-(4-chlorophenoxy)pyridin-3-yl]carbonyl}-4-[2-(4-cyclobutylpiperazin-1-yl)-2-oxoethyl]piperazine] was tested, and the inhibition at 4 µM was over 90%.
Compound `CC(C)(C)c1ccc(Oc2ncccc2C(=O)N2CCN(CC(=O)N3CCN(C4CCC4)CC3)CC2)cc1` [Compound 474, 1-{[2-(4-tert-butylphenoxy)pyridin-3-yl]carbonyl}-4-[2-(4-cyclobutylpiperazin-1-yl)-2-oxoethyl]piperazine] has an inhibition at 4 µM of over 90%.
With `C=CCSc1ncccc1C(=O)N1CCN(CC(=O)N2CCN(C3CCC3)CC2)CC1` [Compound 475, 1-{[2-(allythio)pyridin-3-yl]carbonyl}-4-[2-(4-cyclobutylpiperazin-1-yl)-2-oxoethyl]piperazine] the inhibition at 4 µM was over 90%.
`O=C(Cc1ccccc1OCc1ccccc1)N1CCN(CC(=O)N2CCN(C3CCC3)CC2)CC1` [Compound 476, 1-{[2-(benzyloxy)phenyl]acetyl}-4-[2-(4-cyclobutylpiperazin-1-yl)-2-oxoethyl]piperazine] gave an inhibition at 4 µM of over 90%.
`CC(CC(=O)N1CCN(CC(=O)N2CCN(C3CCC3)CC2)CC1)Sc1ccc(Cl)cc1` (centres unmarked) [Compound 482, 1-{3-[(4-chlorophenyl)thio]butanoyl}-4-[2-(4-cyclobutylpiperazin-1-yl)-2-oxoethyl]piperazine] gave an inhibition at 4 µM of over 90%.
`CCC(C)N1CCN(C(=O)CN2CCN(C(C)=O)CC2)CC1` (centres unmarked) [Compound 486, 1-acetyl-4-[2-(4-sec-butylpiperazin-1-yl)-2-oxoethyl]piperazine] showed an inhibition at 4 µM of over 90%.
For `CCCCn1c(C(=O)N2CCN(CC(=O)N3CCN(C4CCC4)CC3)CC2)cc2ccccc21` [Compound 495, 1-butyl-2-({4-[2-(4-cyclobutylpiperazin-1-yl)-2-oxoethyl]piperazin-1-yl}carbonyl)-1H-indole], the inhibition at 4 µM was over 90%.
`Cc1cc(C(=O)N2CCN(CC(=O)N3CCN(C4CCC4)CC3)CC2)c(C)n1C` [Compound 497, 1-cyclobutyl-4-({4-[(1,2,5-trimethyl-1H-pyrrol-3-yl)carbonyl]piperazin-1-yl}acetyl)piperazine] showed an inhibition at 4 µM of over 90%.
`Cc1cc(C(=O)N2CCN(CC(=O)N3CCN(C4CCC4)CC3)CC2)nn1C` [Compound 498, 1-cyclobutyl-4-({4-[(1,5-dimethyl-1H-pyrazol-3-yl)carbonyl]piperazin-1-yl}acetyl)piperazine] showed an inhibition at 4 µM of over 90%.
In the case of `CCn1nc(C)cc1C(=O)N1CCN(CC(=O)N2CCN(C3CCC3)CC2)CC1` [Compound 499, 1-cyclobutyl-4-({4-[(1-ethyl-3-methyl-1H-pyrazol-5-yl)carbonyl]piperazin-1-yl}acetyl)piperazine], the inhibition at 4 µM is reported as over 90%.
In the case of `O=C(COc1cccc2ccccc12)N1CCN(CC(=O)N2CCN(C3CCC3)CC2)CC1` [Compound 500, 1-cyclobutyl-4-({4-[(1-naphthyloxy)acetyl]piperazin-1-yl}acetyl)piperazine], the inhibition at 4 µM is reported as over 90%.
For `COc1cccc(CC(=O)N2CCN(CC(=O)N3CCN(C4CCC4)CC3)CC2)c1OC` [Compound 502, 1-cyclobutyl-4-({4-[(2,3-dimethoxyphenyl)acetyl]piperazin-1-yl}acetyl)piperazine], the inhibition at 4 µM was over 90%.
In the case of `Cc1cccc(OCC(=O)N2CCN(CC(=O)N3CCN(C4CCC4)CC3)CC2)c1C` [Compound 503, 1-cyclobutyl-4-({4-[(2,3-dimethylphenoxy)acetyl]piperazin-1-yl}acetyl)piperazine], the inhibition at 4 µM is reported as over 90%.
Compound `O=C(COc1ccc(Cl)cc1Cl)N1CCN(CC(=O)N2CCN(C3CCC3)CC2)CC1` [Compound 504, 1-cyclobutyl-4-({4-[(2,4-dichlorophenoxy)acetyl]piperazin-1-yl}acetyl)piperazine] has an inhibition at 4 µM of over 90%.
`O=C(Cc1ccc(Cl)cc1Cl)N1CCN(CC(=O)N2CCN(C3CCC3)CC2)CC1` [Compound 505, 1-cyclobutyl-4-({4-[(2,4-dichlorophenyl)acetyl]piperazin-1-yl]acetyl)piperazine] showed an inhibition at 4 µM of over 90%.
Work on `O=C(Cc1ccc(F)cc1F)N1CCN(CC(=O)N2CCN(C3CCC3)CC2)CC1` [Compound 506, 1-cyclobutyl-4-({4-[(2,4-difluorophenyl)acetyl]piperazin-1-yl}acetyl)piperazine] yielded an inhibition at 4 µM of over 90%.
`Cc1ccc(OCC(=O)N2CCN(CC(=O)N3CCN(C4CCC4)CC3)CC2)c(C)c1` [Compound 508, 1-cyclobutyl-4-({4-[(2,4-dimethylphenoxy)acetyl]piperazin-1-yl}acetyl)piperazine] showed an inhibition at 4 µM of over 90%.
`Cc1ccc(C)c(OCC(=O)N2CCN(CC(=O)N3CCN(C4CCC4)CC3)CC2)c1` [Compound 510, 1-cyclobutyl-4-({4-[(2,5-dimethylphenoxy)acetyl]piperazin-1-yl}acetyl)piperazine] showed an inhibition at 4 µM of over 90%.
In the case of `O=C(Cc1c(F)cccc1F)N1CCN(CC(=O)N2CCN(C3CCC3)CC2)CC1` [Compound 512, 1-cyclobutyl-4-({4-[(2,6-difluorophenyl)acetyl]piperazin-1-yl}acetyl)piperazine], the inhibition at 4 µM is reported as over 90%.
In the case of `COc1ccc(C(=O)N2CCN(CC(=O)N3CCN(C4CCC4)CC3)CC2)c(OC)n1` [Compound 513, 1-cyclobutyl-4-({4-[(2,6-dimethoxypyridin-3-yl)carbonyl]piperazin-1-yl}acetyl)piperazine], the inhibition at 4 µM is reported as over 90%.
Compound `O=C(/C=C/c1cccc2ccccc12)N1CCN(CC(=O)N2CCN(C3CCC3)CC2)CC1` [Compound 514, 1-cyclobutyl-4-({4-[(2E)-3-(1-naphthyl)prop-2-enoyl]piperazin-1-yl}acetyl)piperazine] has an inhibition at 4 µM of over 90%.
For `COc1ccc(/C=C/C(=O)N2CCN(CC(=O)N3CCN(C4CCC4)CC3)CC2)c(OC)c1OC` [Compound 515, 1-cyclobutyl-4-({4-[(2E)-3-(2,3,4-trimethoxyphenyl)prop-2-enoyl]piperazin-1-yl}acetyl)piperazine], the inhibition at 4 µM was over 90%.
`O=C(/C=C/c1cccc(F)c1F)N1CCN(CC(=O)N2CCN(C3CCC3)CC2)CC1` [Compound 516, 1-cyclobutyl-4-({4-[(2E)-3-(2,3-difluorophenyl)prop-2-enoyl]piperazin-1-yl}acetyl)piperazine] was tested, and the inhibition at 4 µM was over 90%.
`COc1cccc(/C=C/C(=O)N2CCN(CC(=O)N3CCN(C4CCC4)CC3)CC2)c1OC` [Compound 517, 1-cyclobutyl-4-({4-[(2E)-3-(2,3-dimethoxyphenyl)prop-2-enoyl]piperazin-1-yl}acetyl)piperazine] showed an inhibition at 4 µM of over 90%.

Same assay, conditions: 1 h; assay described in Example 8; symbol + in column headed Ki of Table II; read-out: percent inhibition of agonist-induced GTP-gammaS binding to H3
Work on `COc1ncc(Cl)cc1C(=O)N1CCN(CC(=O)N2CCN(C3CCC3)CC2)CC1` [Compound 413, 1-[(5-chloro-2-methoxypyridin-3-yl)carbonyl]-4-[2-(4-cyclobutylpiperazin-1-yl)-2-oxoethyl]piperazine] yielded an inhibition at 4 µM of over 90%.
With `O=C(CN1CCN(C(=O)c2ccc(Cl)s2)CC1)N1CCN(C2CCC2)CC1` [Compound 414, 1-[(5-chloro-2-thienyl)carbonyl]-4-[2-(4-cyclobutylpiperazin-1-yl)-2-oxoethyl]piperazine] the inhibition at 4 µM was over 90%.
In the case of `O=C(CN1CCN(C(=O)c2ccc(Cl)nc2)CC1)N1CCN(C2CCC2)CC1` [Compound 416, 1-[(6-chloropyridin-3-yl)carbonyl]-4-[2-(4-cyclobutylpiperazin-1-yl)-2-oxoethyl]piperazine], the inhibition at 4 µM is reported as over 90%.
`O=C(CN1CCN(C(=O)c2ccccc2Oc2ccc(Cl)cc2)CC1)N1CCN(C2CCC2)CC1` [Compound 419, 1-[2-(4-chlorophenoxy)benzoyl]-4-[2-(4-cyclobutylpiperazin-1-yl)-2-oxoethyl]piperazine] gave an inhibition at 4 µM of over 90%.
`CC(Oc1ccc(Cl)cc1)C(=O)N1CCN(CC(=O)N2CCN(C3CCC3)CC2)CC1` (centres unmarked) [Compound 420, 1-[2-(4-chlorophenoxy)propanoyl]-4-[2-(4-cyclobutylpiperazin-1-yl)-2-oxoethyl]piperazine] showed an inhibition at 4 µM of over 90%.
